Values of other authors as cited in patent US5296468A, “GnRH analogs” (The Salk Institute for Biological Studies, priority 1993, dated 1994).

Tests used:
[1] = background, U.S. Pat. No. 4,072,668
[2] = molecular target: T1, the receptor (Homo sapiens, UniProt P30968); conditions: background, U.S. Pat. No. 4,072,668
T1 sequence (P30968 1-328): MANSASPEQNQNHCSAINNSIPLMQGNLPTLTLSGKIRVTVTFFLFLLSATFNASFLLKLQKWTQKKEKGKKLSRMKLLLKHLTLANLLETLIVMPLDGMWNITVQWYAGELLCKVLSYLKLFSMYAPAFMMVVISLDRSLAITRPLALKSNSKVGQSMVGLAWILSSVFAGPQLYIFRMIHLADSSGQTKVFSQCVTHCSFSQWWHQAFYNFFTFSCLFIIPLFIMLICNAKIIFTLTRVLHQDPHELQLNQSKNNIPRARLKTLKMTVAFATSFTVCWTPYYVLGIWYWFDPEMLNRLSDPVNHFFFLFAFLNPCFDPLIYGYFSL

In the case of “pGlu-His-Trp-Ser-Tyr-D-Ala-Leu-Arg-Pro-Gly-NH2 [[D-Ala^6]-GnRH]”, the “biological potency compared with the native hormone” value [1] is given as “greater biological potency than the native hormone” and the “binding strength to the receptor compared with the native hormone” value [2] is given as “greater binding strength to the receptor”.
